The test system of series [1] is monkeys, physically dependent on morphine. Nature of the series: Physical dependence liability: Single Dose Suppression (SDS) in withdrawn morphine-dependent monkeys. The settings on record: 2 monkeys. It counts as in vivo, monkey. The method, then: (§1) Physical Dependence Liability testing was conducted on Compounds A, B, C and F of Table 1. For determining Single Dose Suppression (SDS) data monkeys, physically dependent on 3.0 mg/kg of morphine sulfte q6H, were withdrawn until abstinence signs of intermediate severity were present (12-14 hours). The coded drug was injected at this time by persons other than the observer. The monkeys were graded just prior to injection and at intervals of 1/2, 1, 2, 3, 4, 5 and 6 hours after injection. Grades were based on withdrawal intensity or opiate-like depression and side effects, if present. The results are shown in Tables 2 through 5 together with evaluations thereof by Dr. Henry H. Swain at the University of Michigan. Dosages are in mg/kg.

The format of series [2] is in vivo. The note with it: mouse hot plate, intravenous; for ED50: range in parentheses. The method, then:
(c) The presence of certain N-substituents would confer antagonist activity on members of this new ring system, Tests for analgesic activity were conducted using intravenous administration in the reliable Eddy mouse hot plate assay described in J. Pharmacol. Exp. Ther. […] (1953). The results are set forth in Table 1, together with the activities of morphine and codeine reported as evaluation standards.

The test system of series [3] is morphine dependent monkeys. Description: Physical dependence liability testing, overall evaluation. It counts as in vivo, monkey. The settings on record: for Estimated Physical Dependence Capacity: at doses tested. How it is done:
as §1

In series [4] the test system is Normal monkeys (not dependent on morphine). Nature of the series: Normal monkeys (not dependent on morphine): attempt to elicit the narcotic syndrome. In kind it is in vivo, monkey.
For series [5], the system named is Non-withdrawn, morphine dependent monkeys. Nature of the series: Attempted precipitation of abstinence in non-withdrawn, morphine-dependent monkeys (NW). It counts as in vivo, monkey. The settings on record: for Effects, precipitation of abstinence signs (NW): 2 monkeys.

Consider `C=CCN1CCC2CC(C1)c1ccccc12` (centres unmarked) [F], for which the “Effects, Single Dose Suppression” value in series [1] (1.0 mg/kg) is on record as “No apparent effect”; in series [1] (2.0 mg/kg), “No apparent effect”; in series [1] (4.0 mg/kg), “No apparent effect”; in series [1] (8.0 mg/kg), “No apparent effect”; in series [1] (16.0 mg/kg) it was “No obvious effect”. The duration in series [2] was determined as 119 min. Besides, in series [2], the onset amounted to 3.2 min. The compound also displayed a peak in series [2] of 16.3 min. Further, the ED50 in series [2] is recorded as 19.4 (13.1-28.7) mg/kg. In addition, the “Estimated Physical Dependence Capacity” value in series [3] was “None”.
For `CCCN1CCC2CC(C1)c1ccccc12` (centres unmarked), in series [2], the duration was 120 min, the onset is 3.6 min, the peak is 32.1 min and the ED50 was 16.2 (11.7-22.4) mg/kg.
On to `c1ccc2c(c1)C1CCN(CC3CC3)CC2C1` (centres unmarked) [C], for which the “Effects, Single Dose Suppression” value in series [1] (5.0 mg/kg) and in series [1] (10.0 mg/kg) was “No obvious effect” throughout. In addition, the “Estimated Physical Dependence Capacity” value in series [3] is reported as “None”. In addition, in series [3] (doses tested), the “Remarks: direct effects / convulsions” value is listed as “The drug causes convulsions”. The “Dose estimated to be equivalent to 3.0 mg/kg of morphine sulfate” value in series [3] (evaluation in words) is listed as “Not morphine-like”.
In the case of `CN1CCC2CC(C1)c1ccccc12` (centres unmarked) [B], the “Effects, Single Dose Suppression” value in series [1] (2.0 mg/kg) is recorded as “No apparent effect”. Besides, the “Effects, Single Dose Suppression” value in series [1] (4.0 mg/kg) was “No obvious effect”. In addition, the narcotic signs result in series [4] is given as “no obvious narcotic signs were observed”. In series [2], the duration is 104 min, the onset worked out at 3.2 min, the peak was determined as 20.3 min and the ED50 was 4.2 (2.6-6.7) mg/kg. For the same compound, in series [5], the morphine antagonism entry is recorded as “not morphine antagonists” and the “precipitation of the morphine abstinence syndrome” value was “no such result was observed”. Moreover, the “Effects, precipitation of abstinence signs (NW)” value in series [5] (4.0 mg/kg) was “No obvious effect”. The “Effects, precipitation of abstinence signs (NW)” value in series [5] (8.0 mg/kg) is “No obvious effect”. Besides, the “Estimated Physical Dependence Capacity” value in series [3] is “Little or none at doses tested”.
With `COc1ccc2c3c1O[C@H]1[C@@H](O)C=C[C@H]4[C@@H](C2)N(C)CC[C@@]341` [codeine, reference compound], the ED50 in series [2] is reported as 7.5 (6.8-8.3) mg/kg.
On to `CN1CC[C@]23c4c5ccc(O)c4O[C@H]2[C@@H](O)C=C[C@H]3[C@H]1C5` [morphine, reference compound], for which the ED50 in series [2] is reported as 1.2 (0.9-1.3) mg/kg.
In the case of `c1ccc(CCN2CCC3CC(C2)c2ccccc23)cc1` (centres unmarked), in series [2], the duration was determined as 123 min, the onset was 4.7 min, the peak was found to be 25.6 min and the ED50 is on record as 8.8 (6.2-12.5) mg/kg.
On to `c1ccc2c(c1)C1CCNCC2C1` (centres unmarked) [A], for which the “Effects, Single Dose Suppression” value in series [1] (2.0 mg/kg) is “No apparent effect”. For the same compound, the narcotic signs result in series [4] is listed as “no obvious narcotic signs were observed”. In addition, in series [4] (8.0 mg/kg, 2 monkeys), the “Narcotic signs in normals” value is listed as “No obvious narcotic signs”. In series [2], the duration worked out at 97.5 min, the onset worked out at 3.3 min, the peak was 18.0 min and the ED50 is 4.9 (3.6-6.5) mg/kg. For the same compound, in series [5], the morphine antagonism result was “not morphine antagonists” and the “precipitation of the morphine abstinence syndrome” value is given as “no such result was observed”. For the same compound, the “Estimated Physical Dependence Capacity” value in series [3] is listed as “Not morphine-like”.

Source of the values: patent US4165371A, “1,2,3,4,5,6-Hexahydro-1,6-methano-3-benzazocines” (priority 1976, dated 1979).
